Experimental data as given in ChEMBL document CHEMBL2424519, “DABCO-promoted one-pot synthesis of heteroaryl-substituted benzenes and their biological evaluation” (2013).
Values after ≈ are worked out from the molar mass of the structure shown. Active and inactive are the calls of the source. No cut-off for these calls is given here.

Columns and labels:
Escherichia coli [1] = assay: Antibacterial activity against Escherichia coli at 10 mg/ml after 24 hrs by agar-diffusion technique; type: functional; conditions: read-out: IZ
Aspergillus niger [2] = assay: Antifungal activity against Aspergillus niger after 7 days by disc diffusion technique; type: functional; conditions: 168 h
Aspergillus flavus [3] = assay: Antifungal activity against Aspergillus flavus after 7 days by disc diffusion technique; type: functional; conditions: 168 h
Candida tropicalis [4] = assay: Antifungal activity against Candida tropicalis at 10 mg/ml after 7 days by disc diffusion technique; type: functional; conditions: 168 h, read-out: IZ
Candida albicans [5] = assay: Antifungal activity against Candida albicans after 7 days by disc diffusion technique; type: functional; conditions: 168 h
Pseudomonas aeruginosa [6] = assay: Antibacterial activity against Pseudomonas aeruginosa at 10 mg/ml after 24 hrs by agar-diffusion technique; type: functional; conditions: read-out: IZ
Aspergillus niger [7] = assay: Antifungal activity against Aspergillus niger at 10 mg/ml after 7 days by disc diffusion technique; type: functional; conditions: 168 h, read-out: IZ
[8] = system: Mycobacterium tuberculosis; assay: Antitubercular activity against Mycobacterium tuberculosis H37Rv at 1 ug/ml after 4 weeks by Lowenstein-Jensen medium method; type: functional, organism-based
[9] = system: Mycobacterium tuberculosis; assay: Antitubercular activity against Mycobacterium tuberculosis H37Rv at 100 ug/ml after 4 weeks by Lowenstein-Jensen medium method; type: functional, organism-based
Salmonella typhi [10] = assay: Antibacterial activity against Salmonella typhi at 10 mg/ml after 24 hrs by agar-diffusion technique; type: functional, Salmonella enterica subsp. enterica serovar Typhi; conditions: Salmonella enterica, read-out: IZ
Salmonella typhi [11] = assay: Antibacterial activity against Salmonella typhi after 24 hrs by agar-diffusion technique; type: functional, Salmonella enterica subsp. enterica serovar Typhi; conditions: Salmonella enterica
Candida albicans [12] = assay: Antifungal activity against Candida albicans at 10 mg/ml after 7 days by disc diffusion technique; type: functional; conditions: 168 h, read-out: IZ
Aspergillus flavus [13] = assay: Antifungal activity against Aspergillus flavus at 10 mg/ml after 7 days by disc diffusion technique; type: functional; conditions: 168 h, read-out: IZ
Klebsiella pneumoniae [14] = assay: Antibacterial activity against Klebsiella pneumoniae at 10 mg/ml after 24 hrs by agar-diffusion technique; type: functional; conditions: read-out: IZ
Klebsiella pneumoniae [15] = assay: Antibacterial activity against Klebsiella pneumoniae after 24 hrs by agar-diffusion technique; type: functional
[16] = system: Mycobacterium tuberculosis; assay: Antitubercular activity against Mycobacterium tuberculosis H37Rv at 10 ug/ml after 4 weeks by Lowenstein-Jensen medium method; type: functional, organism-based
Pseudomonas aeruginosa [17] = assay: Antibacterial activity against Pseudomonas aeruginosa after 24 hrs by agar-diffusion technique; type: functional
Escherichia coli [18] = assay: Antibacterial activity against Escherichia coli after 24 hrs by agar-diffusion technique; type: functional
Candida tropicalis [19] = assay: Antifungal activity against Candida tropicalis after 7 days by disc diffusion technique; type: functional; conditions: 168 h

Row | Structure (SMILES) | zone of inhibition at 10000 µg/mL (Escherichia coli [1]) [mm] | MIC (Aspergillus niger [2]) [mg/L] | MIC (Aspergillus flavus [3]) [mg/L] | zone of inhibition at 10000 µg/mL (Candida tropicalis [4]) [mm] | MIC (Candida albicans [5]) [mg/L] | zone of inhibition at 10000 µg/mL (Pseudomonas aeruginosa [6]) [mm] | zone of inhibition at 10000 µg/mL (Aspergillus niger [7]) [mm] | Activity [8] | Activity [9] | zone of inhibition at 10000 µg/mL (Salmonella typhi [10]) [mm] | MIC (Salmonella typhi [11]) [mg/L] | zone of inhibition at 10000 µg/mL (Candida albicans [12]) [mm] | zone of inhibition at 10000 µg/mL (Aspergillus flavus [13]) [mm] | zone of inhibition at 10000 µg/mL (Klebsiella pneumoniae [14]) [mm] | MIC (Klebsiella pneumoniae [15]) [mg/L] | Activity [16] | MIC (Pseudomonas aeruginosa [17]) [mg/L] | MIC (Escherichia coli [18]) [mg/L] | MIC (Candida tropicalis [19]) [mg/L]
1 | CCOC(=O)c1c(-c2ccc(OC)cc2)cc(-c2ccc[nH]2)c([N+](=O)[O-])c1N | 10 | 20 (≈ 52.4 µM) | 20 (≈ 52.4 µM) | 10 | 20 (≈ 52.4 µM) | 12 | 10 | Active | Active | 14 | 20 (≈ 52.4 µM) | 9 | 12 | 16 | 20 (≈ 52.4 µM) | Active | 20 (≈ 52.4 µM) | 20 (≈ 52.4 µM) | 20 (≈ 52.4 µM)
2 | O=C(O)c1cn(C2CC2)c2cc(N3CCNCC3)c(F)cc2c1=O [CIPROFLOXACIN] |  |  |  |  |  | 23 |  |  |  | 24 |  |  |  | 22 |  |  |  |  | 
3 | N#Cc1c(-c2ccccc2)cc(-c2cccs2)c([N+](=O)[O-])c1N | 12 | 20 (≈ 62.2 µM) | 20 (≈ 62.2 µM) | 21 | 20 (≈ 62.2 µM) | 10 | 15 | Active | Active | 9 | 20 (≈ 62.2 µM) | 24 | 12 | 8 | 20 (≈ 62.2 µM) | Active | 20 (≈ 62.2 µM) | 20 (≈ 62.2 µM) | 20 (≈ 62.2 µM)
4 | Clc1ccccc1C(c1ccccc1)(c1ccccc1)n1ccnc1 [CLOTRIMAZOLE] |  |  |  | 21 |  |  | 23 |  |  |  |  | 20 | 19 |  |  |  |  |  | 
5 | CCOC(=O)c1c(-c2ccc(OC)cc2)cc(-c2ccco2)c([N+](=O)[O-])c1N | 10 | 20 (≈ 52.3 µM) | 20 (≈ 52.3 µM) | 8 | 20 (≈ 52.3 µM) | 8 | 10 | Active | Active | 7 | 20 (≈ 52.3 µM) | 7 | 9 | 9 | 20 (≈ 52.3 µM) | Active | 20 (≈ 52.3 µM) | 20 (≈ 52.3 µM) | 20 (≈ 52.3 µM)
6 | N#Cc1c(-c2ccccc2)cc(-c2ccco2)c([N+](=O)[O-])c1N | 17 | 20 (≈ 65.5 µM) | 20 (≈ 65.5 µM) | 8 | 20 (≈ 65.5 µM) | 14 | 8 | Active | Active | 16 | 20 (≈ 65.5 µM) | 10 | 14 | 12 | 20 (≈ 65.5 µM) | Active | 20 (≈ 65.5 µM) | 20 (≈ 65.5 µM) | 20 (≈ 65.5 µM)
7 | CCOC(=O)c1c(-c2ccc(OC)cc2)cc(-c2cccs2)c([N+](=O)[O-])c1N | 14 | 20 (≈ 50.2 µM) | 20 (≈ 50.2 µM) | 42 | 20 (≈ 50.2 µM) | 18 | 18 | Active | Active | 16 | 20 (≈ 50.2 µM) | 16 | 14 | 20 | 20 (≈ 50.2 µM) | Active | 20 (≈ 50.2 µM) | 20 (≈ 50.2 µM) | 20 (≈ 50.2 µM)
8 | N#Cc1c(-c2ccccc2)cc(-c2ccc[nH]2)c([N+](=O)[O-])c1N | 14 | 20 (≈ 65.7 µM) | 20 (≈ 65.7 µM) | 12 | 20 (≈ 65.7 µM) | 16 | 20 | Active | Active | 24 | 20 (≈ 65.7 µM) | 18 | 16 | 18 | 20 (≈ 65.7 µM) | Active | 20 (≈ 65.7 µM) | 20 (≈ 65.7 µM) | 20 (≈ 65.7 µM)
9 | NC(=O)c1cnccn1 |  |  |  |  |  |  |  | Active | Active |  |  |  |  |  |  | Active |  |  | 
